Active and inactive are the calls of the source. No cut-off for these calls is given here.
Assays:
[1] = target: Matrix metalloproteinase-9 (Homo sapiens) (UniProt P14780); assay: Inhibition of human MMP9 using Mca-Pro-Leu-Gly-Leu-Dpa-Ala-Arg-NH2 as substrate by spectrophotometry
[2] = target: Matrix metalloproteinase-14 (Homo sapiens) (UniProt P50281); assay: Inhibition of human MMP14 using Mca-Pro-Leu-Gly-Leu-Dpa-Ala-Arg-NH2 as substrate by spectrophotometry
[3] = target: Collagenase 3 (Homo sapiens) (UniProt P45452); assay: Inhibition of human MMP13 prodomain (20 to 272) using Mca-Pro-Leu-Gly-Leu-Dpa-Ala-Arg-NH2 as substrate by spectrophotometry
[4] = target: Stromelysin-2 (Homo sapiens) (UniProt P09238); assay: Inhibition of human MMP10 using Mca-Pro-Leu-Gly-Leu-Dpa-Ala-Arg-NH2 as substrate by spectrophotometry
Sequence of Stromelysin-2 (Homo sapiens) (P09238 99-476 limits assumed): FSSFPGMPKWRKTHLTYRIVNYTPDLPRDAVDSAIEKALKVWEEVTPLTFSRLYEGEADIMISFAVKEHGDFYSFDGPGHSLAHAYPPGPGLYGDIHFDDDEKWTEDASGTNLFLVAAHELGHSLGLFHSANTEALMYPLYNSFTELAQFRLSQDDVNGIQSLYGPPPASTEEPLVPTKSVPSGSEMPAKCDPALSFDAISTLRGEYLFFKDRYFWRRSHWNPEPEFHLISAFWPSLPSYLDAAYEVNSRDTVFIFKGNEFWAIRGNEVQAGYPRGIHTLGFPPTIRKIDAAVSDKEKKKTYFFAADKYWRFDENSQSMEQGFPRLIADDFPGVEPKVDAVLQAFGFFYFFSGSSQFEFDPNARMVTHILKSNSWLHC

[5] = target: Stromelysin-1 (Homo sapiens) (UniProt P08254); assay: Inhibition of human MMP3 using Mca-Pro-Leu-Gly-Leu-Dpa-Ala-Arg-NH2 as substrate by spectrophotometry
Sequence of Stromelysin-1 (Homo sapiens) (P08254 100-477 limits assumed): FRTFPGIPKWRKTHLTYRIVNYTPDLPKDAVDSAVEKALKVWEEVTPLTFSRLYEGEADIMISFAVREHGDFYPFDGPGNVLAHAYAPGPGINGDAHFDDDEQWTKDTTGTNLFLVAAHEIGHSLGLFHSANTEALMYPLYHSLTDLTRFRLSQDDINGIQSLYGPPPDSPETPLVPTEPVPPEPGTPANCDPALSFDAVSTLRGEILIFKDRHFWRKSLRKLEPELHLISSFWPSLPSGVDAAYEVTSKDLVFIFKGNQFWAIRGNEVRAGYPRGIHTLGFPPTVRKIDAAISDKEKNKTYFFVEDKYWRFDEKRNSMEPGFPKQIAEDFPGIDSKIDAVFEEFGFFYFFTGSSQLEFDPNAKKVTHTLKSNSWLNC

[6] = target: Neutrophil collagenase (Homo sapiens) (UniProt P22894); assay: Inhibition of human MMP8 catalytic domain (21 to 261) using Mca-Pro-Leu-Gly-Leu-Dpa-Ala-Arg-NH2 as substrate by spectrophotometry
Sequence of Neutrophil collagenase (Homo sapiens) (P22894 101-467 limits assumed): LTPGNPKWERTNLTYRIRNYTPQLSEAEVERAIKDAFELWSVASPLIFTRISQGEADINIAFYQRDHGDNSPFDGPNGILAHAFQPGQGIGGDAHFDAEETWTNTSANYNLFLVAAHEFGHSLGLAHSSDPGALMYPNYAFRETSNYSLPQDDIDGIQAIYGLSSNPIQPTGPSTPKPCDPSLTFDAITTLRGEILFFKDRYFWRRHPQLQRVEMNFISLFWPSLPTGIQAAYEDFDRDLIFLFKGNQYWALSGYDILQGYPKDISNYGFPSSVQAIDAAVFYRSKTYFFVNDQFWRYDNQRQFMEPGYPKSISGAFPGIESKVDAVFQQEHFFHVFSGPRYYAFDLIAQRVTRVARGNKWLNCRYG

[7] = target: T1, Macrophage metalloelastase (Homo sapiens, UniProt P39900); assay: Binding affinity to human MMP12 catalytic domain (98 to 266) by isothermal titration calorimetry
Target sequence in this assay (P39900 whole entry, the tested form may be a part): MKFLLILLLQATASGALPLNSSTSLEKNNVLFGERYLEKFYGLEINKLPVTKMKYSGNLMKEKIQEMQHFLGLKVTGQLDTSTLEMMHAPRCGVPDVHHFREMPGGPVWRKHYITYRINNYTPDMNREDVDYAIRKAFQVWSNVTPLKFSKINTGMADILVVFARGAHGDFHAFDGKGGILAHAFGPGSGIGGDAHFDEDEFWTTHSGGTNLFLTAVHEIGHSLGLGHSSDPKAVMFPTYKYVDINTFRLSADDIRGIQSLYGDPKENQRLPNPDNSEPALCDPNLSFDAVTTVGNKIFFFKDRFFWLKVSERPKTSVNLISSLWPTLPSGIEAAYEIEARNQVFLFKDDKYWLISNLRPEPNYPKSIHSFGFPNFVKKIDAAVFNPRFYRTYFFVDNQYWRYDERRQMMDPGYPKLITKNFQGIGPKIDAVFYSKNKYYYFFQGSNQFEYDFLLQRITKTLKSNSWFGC

[8] = target: 72 kDa type IV collagenase (Homo sapiens) (UniProt P08253); assay: Inhibition of human MMP2 using Mca-Pro-Leu-Gly-Leu-Dpa-Ala-Arg-NH2 as substrate by spectrophotometry
Sequence of 72 kDa type IV collagenase (Homo sapiens) (P08253 110-660 limits assumed): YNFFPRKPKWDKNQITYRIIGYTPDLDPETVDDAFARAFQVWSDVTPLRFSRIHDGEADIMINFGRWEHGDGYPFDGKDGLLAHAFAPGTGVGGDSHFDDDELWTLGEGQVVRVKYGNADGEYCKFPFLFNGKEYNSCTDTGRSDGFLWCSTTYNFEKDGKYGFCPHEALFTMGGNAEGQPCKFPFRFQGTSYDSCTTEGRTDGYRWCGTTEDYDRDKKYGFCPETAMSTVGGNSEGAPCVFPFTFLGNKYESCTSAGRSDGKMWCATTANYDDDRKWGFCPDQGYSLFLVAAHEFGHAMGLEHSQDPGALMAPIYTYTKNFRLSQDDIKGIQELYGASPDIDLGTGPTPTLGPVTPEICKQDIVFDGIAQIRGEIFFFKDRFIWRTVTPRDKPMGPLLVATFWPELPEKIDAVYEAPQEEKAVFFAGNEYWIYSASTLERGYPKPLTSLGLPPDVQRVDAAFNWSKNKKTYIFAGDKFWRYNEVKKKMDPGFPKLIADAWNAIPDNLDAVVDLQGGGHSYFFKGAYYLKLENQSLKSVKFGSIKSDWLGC

[9] = target: T1, Macrophage metalloelastase; assay: Inhibition of human MMP12 catalytic domain (98 to 266) at pH 6.8 by isothermal titration calorimetry
Target sequence in this assay (P39900 whole entry, the tested form may be a part): as the sequence (P39900 whole entry, the tested form may be a part) above

[10] = target: T1, Macrophage metalloelastase; assay: Inhibition of human MMP12 catalytic domain (98 to 266) at pH 6 to 7 by isothermal titration calorimetry
Target sequence in this assay (P39900 106-470 limits assumed): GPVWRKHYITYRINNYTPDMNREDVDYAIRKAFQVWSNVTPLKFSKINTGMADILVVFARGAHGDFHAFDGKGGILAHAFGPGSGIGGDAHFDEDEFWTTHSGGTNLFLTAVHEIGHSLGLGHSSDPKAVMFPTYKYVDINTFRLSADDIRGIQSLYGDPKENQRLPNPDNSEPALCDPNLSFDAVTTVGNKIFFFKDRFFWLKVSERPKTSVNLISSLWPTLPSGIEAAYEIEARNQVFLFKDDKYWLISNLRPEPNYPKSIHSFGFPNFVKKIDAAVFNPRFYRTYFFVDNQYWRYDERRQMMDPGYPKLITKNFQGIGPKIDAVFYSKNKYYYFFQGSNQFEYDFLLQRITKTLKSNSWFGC

Sequence of Matrix metalloproteinase-9 (Homo sapiens) (P14780 whole entry): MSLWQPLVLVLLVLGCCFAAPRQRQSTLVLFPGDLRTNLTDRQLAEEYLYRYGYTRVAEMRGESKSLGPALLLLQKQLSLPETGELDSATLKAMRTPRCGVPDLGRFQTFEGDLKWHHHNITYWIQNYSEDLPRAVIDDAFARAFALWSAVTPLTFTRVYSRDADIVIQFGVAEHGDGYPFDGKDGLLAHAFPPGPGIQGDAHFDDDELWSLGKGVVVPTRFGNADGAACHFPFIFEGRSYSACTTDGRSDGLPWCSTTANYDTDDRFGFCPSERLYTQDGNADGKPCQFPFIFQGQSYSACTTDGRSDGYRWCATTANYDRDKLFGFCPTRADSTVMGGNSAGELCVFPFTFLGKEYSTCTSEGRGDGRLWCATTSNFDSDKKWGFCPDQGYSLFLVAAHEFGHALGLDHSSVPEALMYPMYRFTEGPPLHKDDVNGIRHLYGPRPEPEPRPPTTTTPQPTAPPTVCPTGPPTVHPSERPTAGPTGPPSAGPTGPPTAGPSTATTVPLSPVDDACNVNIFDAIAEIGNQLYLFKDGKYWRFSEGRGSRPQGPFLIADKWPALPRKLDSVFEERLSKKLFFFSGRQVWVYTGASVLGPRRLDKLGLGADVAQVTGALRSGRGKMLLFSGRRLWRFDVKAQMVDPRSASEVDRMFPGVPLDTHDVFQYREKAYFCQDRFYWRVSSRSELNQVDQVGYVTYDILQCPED

SMILES | inhibition [1] | inhibition [2] | inhibition [3] | inhibition [4] | inhibition [5] | inhibition [6] | Ki [7] | inhibition [8] | Ki [9] | INH [10] | inhibition [10]
C[C@H](NC(=O)[C@H](C)NC(=O)[C@H](Cc1cc(-c2ccc(-c3cccc(Cl)c3)cc2)no1)CP(=O)(O)c1ccc(Br)cc1)C(N)=O | Active | inactive | inactive | Active | inactive | inactive | 0.28 nM | Active | – | – | –
NC(=O)[C@H](CCC(=O)O)NC(=O)[C@H](CCC(=O)O)NC(=O)[C@H](Cc1cc(-c2ccccc2)no1)CP(=O)(O)c1ccc(Br)cc1 | Active | Active | Active | Active | Active | Active | 15.5 nM | Active | – | – | –
NC(=O)[C@H](CCC(=O)O)NC(=O)[C@H](CCC(=O)O)NC(=O)[C@H](Cc1cc(-c2ccc(-c3cccc(Cl)c3)cc2)no1)CP(=O)(O)c1ccc(Br)cc1 | – | – | – | Active | Active | – | – | – | 0.24 nM | 0.044 nM | –
C[C@H](NC(=O)[C@H](C)NC(=O)[C@H](Cc1cc(-c2ccccc2)no1)CP(=O)(O)c1ccc(Br)cc1)C(N)=O | – | – | – | Active | Active | – | 14.7 nM | – | – | – | Active
